According to patent publication US10426765B2, “Pharmaceutical composition containing nicotinic acid and/or nicotinamide and/or tryptophan for positively influencing the intestinal microbiota” (CONARIS RESEARCH INSTITUTE AG, priority 2012, dated 2019):

How the values were obtained:
Crohn's disease = Crohn's disease activity index (CDAI) in patients treated with nicotinamide (Example 2); assay type: in vivo, human; details: three Crohn's disease patients
Text: A value of CDAI<150 is equivalent to remission.

[1] = test system: DSS colitis in ACE2-deficient mice; assay: DSS colitis in ACE2-deficient mice given nicotinamide or tryptophan dipeptides (Example 1); assay type: in vivo; details: prophylactic and permanent administration
Text: Top row: histopathology of the colon (haematoxylin eosin staining on day 10 after DSS administration; bar: 100 μm (a)), weight loss in percent (b) and diarrhea score (c) of DSS-challenged ACE2-normal (ACE2+/y) and ACE2-deficient (ACE2-/y) mice which were given vehicle or nicotinamide (NAM) in the drinking water. The NAM administration began 3 days before the DSS administration. Bottom row: histopathology of the colon (haematoxylin eosin staining on day 7 after DSS challenge; bar: 100 μm (d)), weight loss in percent (e) and damage of the crypts of the colon (f) in DSS-challenged ACE2-normal (ACE2+/y) and ACE2-deficient (ACE2-/y) mice which received normal diet (control) or a tryptophan-dipeptide diet (Trp+). New and findings unpublished at the time the priority application was filed, since published as Hashimoto et al. (Nature 2012, 487:477), support the teachings of the present invention and are briefly described here for the purpose of illustration: It is known that the expression of the transporter for neutral amino acids B^0 AT1 (which transports tryptophan) on the surface of intestinal epithelial cells is bound to the presence of the angiotensin converting enzyme 2 (ACE2) (Kowalczuk et al. 2008, FASEB J. 22:2880; Camargo et al. 2009, Gastroenterology 136:872). […]

[2] = cited from earlier work

**Q.** Which results are given for `NC(=O)c1cccnc1` [nicotinamide]?
**A.** response of Crohn's disease activity index (CDAI) (Crohn's disease; conventionally formulated nicotinamide 2×600 mg daily for 4 weeks): clear response; remission (CDAI<150) within the therapy period (Crohn's disease; nicotinamide 2×600 mg daily for 4 weeks): two of them achieved the remission; intensification of DSS-induced intestinal inflammation in Ace2-/y mice [1]: reduce this effect; water solubility [2]: high water solubility
